Residue numbers refer to the chain shown, from its start. Where two headings read alike, the source gives them in different places. Ends that are not written are not given here.
Legend:
Assay in all cases: PDK1 activity assay with T308tide
Format in all cases: biochemical
GST-PDK1 [Gln150Lys] = biological target: T1, GST-PDK1 [Gln150Lys] (Homo sapiens, UniProt O15530, Q150K)
T1 construct: different protein constructs, comprising the full length protein or the catalytic domain alone; made in house; host or cells: HEK293 cells (pEBG-2T-PDK1 mutant)
T1 sequence (O15530 1-556 Q150K): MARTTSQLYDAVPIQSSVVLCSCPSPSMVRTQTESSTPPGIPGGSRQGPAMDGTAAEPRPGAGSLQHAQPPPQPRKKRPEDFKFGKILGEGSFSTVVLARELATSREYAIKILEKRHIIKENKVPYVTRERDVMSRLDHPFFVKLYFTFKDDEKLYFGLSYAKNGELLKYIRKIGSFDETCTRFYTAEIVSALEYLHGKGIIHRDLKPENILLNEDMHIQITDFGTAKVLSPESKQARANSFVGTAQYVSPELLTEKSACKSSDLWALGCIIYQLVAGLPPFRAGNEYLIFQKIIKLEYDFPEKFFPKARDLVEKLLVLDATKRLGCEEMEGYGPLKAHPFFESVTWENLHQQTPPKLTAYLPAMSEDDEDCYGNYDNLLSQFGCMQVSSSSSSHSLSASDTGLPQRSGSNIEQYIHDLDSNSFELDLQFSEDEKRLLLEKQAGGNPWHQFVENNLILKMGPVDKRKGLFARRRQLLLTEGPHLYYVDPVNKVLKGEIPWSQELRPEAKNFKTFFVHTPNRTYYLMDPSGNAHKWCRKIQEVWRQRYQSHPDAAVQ

GST-PDK1 [Gln150Glu] = biological target: T2, GST-PDK1 [Gln150Glu] (Homo sapiens, UniProt O15530, Q150E)
T2 construct: different protein constructs, comprising the full length protein or the catalytic domain alone; made in house; host or cells: HEK293 cells (pEBG-2T-PDK1 mutant)
T2 sequence (O15530 1-556 Q150E): T1 sequence (O15530 1-556 Q150K) with K150E

GST-PDK1 [Arg131Ala] = biological target: T3, GST-PDK1 [Arg131Ala] (Homo sapiens, UniProt O15530, R131A); conditions: for AC50 / Max. activity: GST-PDK1 [Arg131Ala]
T3 construct: different protein constructs, comprising the full length protein or the catalytic domain alone; made in house; host or cells: HEK293 cells (pEBG-2T-PDK1 mutant)
T3 sequence (O15530 1-556 R131A): T1 sequence (O15530 1-556 Q150K) with R131A, K150Q

Molecule	AC50 (GST-PDK1 [Gln150Lys])	Max. activity (GST-PDK1 [Gln150Lys])	Max. activity (GST-PDK1 [Gln150Glu])	AC50 (GST-PDK1 [Gln150Glu]; read-out: AC50)	activation of PDK1 mutant (in words) (GST-PDK1 [Arg131Ala]; Arg131 mutated to Ala)	AC50 (GST-PDK1 [Arg131Ala])	Max. activity (GST-PDK1 [Arg131Ala])	AC50 (GST-PDK1 [Gln150Glu])
O=C(O)CSC(CC(=O)c1ccc(Cl)cc1)c1ccccc1 (stereo not drawn) [Compound 1]	15 ± 4 µM	1.37 ± 0.06 U/mg	2.5 ± 0.7 U/mg	> 200 µM	no longer activated	> 200 µM	1.09 ± 0.06 U/mg	–
REPRILSEEEQEMFRDFDYIADWC [PIFtide, reference compound]	0.29 ± 0.05 µM	2.7 ± 0.2 U/mg	–	–	–	3.7 ± 2 µM	1.24 ± 0.8 U/mg	No Effect

Source: patent US20110152166A1, “METHOD OF MODULATION OF PROTEIN PHOSPHORYLATION-DEPENDENT CONFORMATIONAL TRANSITIONS WITH LOW MOLECULAR WEIGHT COMPOUNDS” (priority 2006, published 2011)
